Measured values: patent US20090047288A1, “Glucan compositions and methods of enhancing CR3 dependent neutrophil-mediated cytotoxicity” (priority 2006, published 2009)

Key:
PI 3-kinase = PI 3-kinase activity after dual ligation of CR3 in human neutrophils (ELISA); format: cell-based; details: dual ligation plus inhibitor: LY294002 50 μM, Piceatannol 25 μM; one hour
Protocol: Human neutrophils were stimulated with anti-M1/70 mAb (1 μg/ml) followed with goat-anti-rat Ig (5 μg/ml) in the presence or absence of the 25 kD active moiety of β-glucan (10 μg/ml) at 37° C. […] For measurement of PI 3-kinase activity, cells were stimulated for one hour and aliquots of cell lysates adjusted for protein concentration (500 μg of protein) were incubated for two hours at 4° C. with anti-PI 3-kinase p85 antibody, and immune complexes were adsorbed onto protein A-agarose for three hours. The complexes were then washed twice with lysis buffer and three times with 10 mM Tris-HCl, pH 7.4. To ensure that PI 3-kinase levels remained equivalent at the end of the immunoprecipitation, 10% from each treatment sample were collected during the last wash in a separate tube and analyzed by SDS-PAGE and immunoblotting with Abs to the p85 PI 3-kinase subunit. […] In brief, cell lysates were prepared and PI-3K was immunoprecipitated with antibody against the p85 subunit and incubated with PI(4,5)P2 (phosphatidylinositol-4,5-diphosphate). […]
Additionally, human peripheral blood neutrophils were stimulated with M1/70 mAb followed by secondary Ab (with or without 25 kD β-glucan) or 25 kD β-glucan alone for one hour. […] The immunoprecipitates were analyzed on SDS-PAGE gel and blotted with anti-PI 3-kinase p85 mAb. The immunoprecipitates were also measured for PI 3-kinase activity by ELISA. […]

[1] = system: low-grade or slow-growing NHL; details: 166 patients with advanced low-grade or slow-growing NHL, cited from earlier work

| Compound | PI 3-kinase activity (level of PI(3,4,5)P3) (PI 3-kinase) [µM] | patients having complete remission [1] [%] | patients whose tumors shrunk by at least one half ([1]; those who completed treatment) [%] |
| --- | --- | --- | --- |
| O=c1cc(N2CCOCC2)oc2c(-c3ccccc3)cccc12 [LY294002] | 9.05 ± 1.14 | – | – |
| Oc1cc(O)cc(/C=C/c2ccc(O)c(O)c2)c1 [Piceatannol] | 17.1 ± 1.5 | – | – |
| rituximab: monoclonal antibody used to treat non-Hodgkin's lymphoma | – | 6 | 48 |
